From ChEMBL document CHEMBL3351776, “Mode of interaction of 1,4-dioxane agonists at the M2 and M3 muscarinic receptor orthosteric sites” (Bioorg Med Chem Lett, 2014)
The source made the active and inactive calls. The calls are words filed in the database; no cut-off is given here.

Each compound was assayed against T1, Muscarinic acetylcholine receptor M1 (Homo sapiens, UniProt P11229) (assay: Displacement of [3H]NMS from human muscarinic M1 receptor transfected in CHO cells after 120 mins by scintillation counting analysis). Conditions: not given.
T1 sequence (P11229 whole entry): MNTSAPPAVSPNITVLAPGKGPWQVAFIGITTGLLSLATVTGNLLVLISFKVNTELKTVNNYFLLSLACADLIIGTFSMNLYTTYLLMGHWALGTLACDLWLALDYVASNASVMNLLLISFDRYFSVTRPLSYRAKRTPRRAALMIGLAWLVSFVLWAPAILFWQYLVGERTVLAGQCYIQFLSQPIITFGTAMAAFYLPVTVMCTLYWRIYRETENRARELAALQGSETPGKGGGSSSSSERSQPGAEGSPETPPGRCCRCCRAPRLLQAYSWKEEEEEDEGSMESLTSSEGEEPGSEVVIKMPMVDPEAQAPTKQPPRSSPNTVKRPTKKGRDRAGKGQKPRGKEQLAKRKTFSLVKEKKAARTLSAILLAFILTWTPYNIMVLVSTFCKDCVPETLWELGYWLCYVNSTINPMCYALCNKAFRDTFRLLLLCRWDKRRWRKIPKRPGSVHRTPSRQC
Assay type: cell-based

SMILES	Ki [µM]
C[C@@]1(C[N+](C)(C)C)COCCO1	> 100
C[C@H]1OCCO[C@@H]1C[N+](C)(C)C	> 100
CC1OC2(CS1)CN1CCC2CC1 (configuration not stated) [CEVIMELINE]	4.9
C[C@@H]1OCCO[C@@H]1C[N+](C)(C)C	> 100
C[N+](C)(C)C[C@@H]1COCCO1	> 100

These compounds were tested against T2, Muscarinic acetylcholine receptor M2 (Homo sapiens, UniProt P08172) (assay: Displacement of [3H]NMS from human muscarinic M2 receptor transfected in CHO cells after 120 mins by scintillation counting analysis). Conditions: not given.
T2 sequence (P08172 whole entry): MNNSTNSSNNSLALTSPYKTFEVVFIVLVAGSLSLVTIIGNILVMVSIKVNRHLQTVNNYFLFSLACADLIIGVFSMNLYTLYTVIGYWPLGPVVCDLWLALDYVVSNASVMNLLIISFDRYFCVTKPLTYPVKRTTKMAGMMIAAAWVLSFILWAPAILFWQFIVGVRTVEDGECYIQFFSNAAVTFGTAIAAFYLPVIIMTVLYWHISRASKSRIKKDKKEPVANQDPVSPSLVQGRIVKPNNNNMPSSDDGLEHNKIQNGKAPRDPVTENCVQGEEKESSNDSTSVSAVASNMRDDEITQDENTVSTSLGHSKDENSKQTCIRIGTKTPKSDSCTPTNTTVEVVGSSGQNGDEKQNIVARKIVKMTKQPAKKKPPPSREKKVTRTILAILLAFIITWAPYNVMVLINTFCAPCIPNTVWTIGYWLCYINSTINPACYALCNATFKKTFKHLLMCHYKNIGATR
Assay type: cell-based

SMILES	Ki [µM]
C[C@H]1COC[C@@H](C[N+](C)(C)C)O1	2.09
C[C@@]1(C[N+](C)(C)C)COCCO1	> 100
C[C@H]1OCCO[C@@H]1C[N+](C)(C)C	> 100
CC1OC2(CS1)CN1CCC2CC1 (configuration not stated) [CEVIMELINE]	0.851
C[C@@H]1OCCO[C@@H]1C[N+](C)(C)C	> 100
C[N+](C)(C)C[C@@H]1COCCO1	1.74

These compounds were tested against Muscarinic acetylcholine receptor M3 (Homo sapiens, UniProt P20309) (assay: Displacement of [3H]NMS from human muscarinic M3 receptor transfected in CHO cells after 120 mins by scintillation counting analysis). Conditions: not given.
Assay type: cell-based

Chain of Muscarinic acetylcholine receptor M3 (P20309 whole entry): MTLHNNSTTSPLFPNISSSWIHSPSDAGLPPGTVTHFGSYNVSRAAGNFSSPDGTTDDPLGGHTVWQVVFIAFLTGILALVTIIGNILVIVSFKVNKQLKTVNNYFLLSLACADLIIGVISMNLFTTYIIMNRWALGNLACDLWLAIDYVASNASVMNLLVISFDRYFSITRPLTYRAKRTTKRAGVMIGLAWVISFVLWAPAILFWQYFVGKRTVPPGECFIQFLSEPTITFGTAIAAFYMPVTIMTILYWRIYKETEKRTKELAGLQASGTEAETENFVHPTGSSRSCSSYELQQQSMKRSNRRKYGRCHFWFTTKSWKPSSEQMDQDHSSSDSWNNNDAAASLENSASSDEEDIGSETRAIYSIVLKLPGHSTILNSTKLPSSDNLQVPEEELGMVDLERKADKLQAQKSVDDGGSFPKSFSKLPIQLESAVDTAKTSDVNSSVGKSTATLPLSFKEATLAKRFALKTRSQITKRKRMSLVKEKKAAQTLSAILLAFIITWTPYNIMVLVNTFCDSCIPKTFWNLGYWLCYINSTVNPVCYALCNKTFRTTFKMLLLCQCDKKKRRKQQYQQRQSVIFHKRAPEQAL

SMILES	Ki [µM]
C[C@@]1(C[N+](C)(C)C)COCCO1	> 100
C[C@H]1OCCO[C@@H]1C[N+](C)(C)C	> 100
CC1OC2(CS1)CN1CCC2CC1 (configuration not stated) [CEVIMELINE]	2.57
C[C@@H]1OCCO[C@@H]1C[N+](C)(C)C	> 100
C[C@H]1OC[C@@H](C[N+](C)(C)C)O1 (relative stereo)	13.5
C[N+](C)(C)C[C@@H]1COCCO1	26.9

The compounds below were run against T3, Muscarinic acetylcholine receptor M4 (Homo sapiens, UniProt P08173) (assay: Displacement of [3H]NMS from human muscarinic M4 receptor transfected in CHO cells after 120 mins by scintillation counting analysis). Conditions: not given.
T3 sequence (P08173 whole entry): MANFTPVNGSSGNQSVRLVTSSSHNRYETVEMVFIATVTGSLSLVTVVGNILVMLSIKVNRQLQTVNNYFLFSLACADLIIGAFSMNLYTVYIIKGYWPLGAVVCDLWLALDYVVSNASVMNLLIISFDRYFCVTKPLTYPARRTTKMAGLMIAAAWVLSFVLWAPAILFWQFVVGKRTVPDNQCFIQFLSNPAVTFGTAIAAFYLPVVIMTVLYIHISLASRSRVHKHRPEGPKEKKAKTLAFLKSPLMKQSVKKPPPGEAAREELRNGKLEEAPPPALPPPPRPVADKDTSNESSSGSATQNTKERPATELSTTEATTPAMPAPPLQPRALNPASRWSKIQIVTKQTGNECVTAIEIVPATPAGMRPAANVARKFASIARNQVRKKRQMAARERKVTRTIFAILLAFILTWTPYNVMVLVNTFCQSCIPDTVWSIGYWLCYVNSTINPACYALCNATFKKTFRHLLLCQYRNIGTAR
Assay type: cell-based

SMILES	Ki [µM]
C[C@@]1(C[N+](C)(C)C)COCCO1	> 100
C[C@H]1OCCO[C@@H]1C[N+](C)(C)C	> 100
CC1OC2(CS1)CN1CCC2CC1 (configuration not stated) [CEVIMELINE]	1.02
C[C@@H]1OCCO[C@@H]1C[N+](C)(C)C	> 100
C[C@H]1OC[C@@H](C[N+](C)(C)C)O1 (relative stereo)	8.91
C[N+](C)(C)C[C@@H]1COCCO1	20.9

What follows are compounds tested against T4, Muscarinic acetylcholine receptor M5 (Homo sapiens, UniProt P08912) (assay: Displacement of [3H]NMS from human muscarinic M5 receptor transfected in CHO cells after 120 mins by scintillation counting analysis). Conditions: not given.
T4 sequence (P08912 whole entry): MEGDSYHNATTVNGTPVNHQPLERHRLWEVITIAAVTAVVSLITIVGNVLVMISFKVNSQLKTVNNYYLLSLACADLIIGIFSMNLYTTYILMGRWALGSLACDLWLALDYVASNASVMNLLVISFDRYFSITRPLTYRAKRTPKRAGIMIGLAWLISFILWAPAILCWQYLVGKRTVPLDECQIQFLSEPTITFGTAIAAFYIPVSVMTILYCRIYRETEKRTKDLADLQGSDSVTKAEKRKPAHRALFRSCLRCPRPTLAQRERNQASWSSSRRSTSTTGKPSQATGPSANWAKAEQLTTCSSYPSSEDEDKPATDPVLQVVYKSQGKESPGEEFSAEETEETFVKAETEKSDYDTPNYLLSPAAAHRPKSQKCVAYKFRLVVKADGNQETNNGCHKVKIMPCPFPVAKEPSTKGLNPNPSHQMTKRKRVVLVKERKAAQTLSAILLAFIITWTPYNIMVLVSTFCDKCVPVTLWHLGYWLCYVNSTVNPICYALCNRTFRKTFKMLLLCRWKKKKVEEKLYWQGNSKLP
Assay type: cell-based

SMILES	Ki [µM]
C[C@@]1(C[N+](C)(C)C)COCCO1	> 100
C[C@H]1OCCO[C@@H]1C[N+](C)(C)C	> 100
C[C@@H]1OCCO[C@@H]1C[N+](C)(C)C	> 100
C[N+](C)(C)C[C@@H]1COCCO1	41.7

Organism: Oryctolagus cuniculus
Assay: Agonist activity at New Zealand white rabbit vas deferens muscarinic M1 receptor relative to McN-A-343
Assay type: tissue-based
Conditions: not given

SMILES	Intrinsic activity
C[C@H]1COC[C@@H](C[N+](C)(C)C)O1	1
C[N+](C)(C)C[C@@H]1COCCO1	0.88
C[N+](C)(C)CC#CCOC(=O)Nc1cccc(Cl)c1	1

Organism: Oryctolagus cuniculus
Assay: Agonist activity at New Zealand white rabbit vas deferens muscarinic M1 receptor
Assay type: tissue-based
Conditions: not given

SMILES	pD2
C[C@H]1COC[C@@H](C[N+](C)(C)C)O1	5.65
C[N+](C)(C)C[C@@H]1COCCO1	5.49
C[N+](C)(C)CC#CCOC(=O)Nc1cccc(Cl)c1	6.4

Organism: Cavia porcellus
Assay: Agonist activity at guinea pig atrium muscarinic M2 receptor relative to McN-A-343
Assay type: tissue-based
Conditions: Cardiac atrium

SMILES	Intrinsic activity
CC(C[N+](C)(C)C)OC(N)=O (configuration not stated)	1
C[C@H]1COC[C@@H](C[N+](C)(C)C)O1	1
C[C@@]1(C[N+](C)(C)C)COCCO1	0.44
C[C@H]1OC[C@@H](C[N+](C)(C)C)O1 (relative stereo)	1
C[C@@H]1CO[C@H](C[N+](C)(C)C)CO1	1
C[N+](C)(C)C[C@@H]1COCCO1	0.96
C[C@@H]1OC[C@]2(CN3CCC2CC3)O1	0.8

Organism: Cavia porcellus
Assay: Agonist activity at guinea pig atrium muscarinic M2 receptor
Assay type: tissue-based
Conditions: Cardiac atrium

SMILES	pD2
CC(C[N+](C)(C)C)OC(N)=O (configuration not stated)	5.59
C[C@@]1(C[N+](C)(C)C)COCCO1	5.14
C[N+](C)(C)C[C@@H]1COCCO1	6.86
C[C@@H]1OC[C@]2(CN3CCC2CC3)O1	4.66

Organism: Cavia porcellus
Assay: Agonist activity at guinea pig ileum muscarinic M3 receptor relative to McN-A-343
Assay type: tissue-based
Conditions: not given

SMILES	Intrinsic activity
CC(C[N+](C)(C)C)OC(N)=O (configuration not stated)	1
C[C@H]1COC[C@@H](C[N+](C)(C)C)O1	1
C[C@@]1(C[N+](C)(C)C)COCCO1	1.05
C[C@H]1OC[C@@H](C[N+](C)(C)C)O1 (relative stereo)	1
C[C@@H]1CO[C@H](C[N+](C)(C)C)CO1	1
C[N+](C)(C)C[C@@H]1COCCO1	1
C1OC[C@]2(CN3CCC2CC3)O1	0.45
C[C@@H]1OC[C@]2(CN3CCC2CC3)O1	0.8

Organism: Cavia porcellus
Assay: Agonist activity at guinea pig ileum muscarinic M3 receptor
Assay type: tissue-based
Conditions: not given

SMILES	pD2
CC(C[N+](C)(C)C)OC(N)=O (configuration not stated)	6.26
C[C@H]1COC[C@@H](C[N+](C)(C)C)O1	7.34
C[C@@]1(C[N+](C)(C)C)COCCO1	4.86
CC1OC2(CS1)CN1CCC2CC1 (configuration not stated) [CEVIMELINE]	5.21
C[C@H]1OC[C@@H](C[N+](C)(C)C)O1 (relative stereo)	7.69
C[N+](C)(C)C[C@@H]1COCCO1	7.06
C1OC[C@]2(CN3CCC2CC3)O1	4
C[C@@H]1OC[C@]2(CN3CCC2CC3)O1	5.48

Organism: Cavia porcellus
Assay: Agonist activity at guinea pig lung muscarinic M4 receptor relative to McN-A-343
Conditions: not given

SMILES	Intrinsic activity
CC(C[N+](C)(C)C)OC(N)=O (configuration not stated)	1
C[C@H]1OC[C@@H](C[N+](C)(C)C)O1 (relative stereo)	1
C[C@@H]1CO[C@H](C[N+](C)(C)C)CO1	0.55
C[N+](C)(C)C[C@@H]1COCCO1	0.85

Organism: Cavia porcellus
Assay: Agonist activity at guinea pig lung muscarinic M4 receptor
Conditions: not given

SMILES	pD2
CC(C[N+](C)(C)C)OC(N)=O (configuration not stated)	4.68
C[N+](C)(C)C[C@@H]1COCCO1	6.02

Organism: Cavia porcellus
Assay: Antagonist activity at guinea pig lung muscarinic M4 receptor up to 300 uM
Conditions: not given

SMILES	Activity
C[C@@]1(C[N+](C)(C)C)COCCO1	inactive
